For one data set, the target named is Cytochrome P450 2D6 (Homo sapiens (Human), UniProt P10635). Kind of data set: Cytochrome P450 inhibition, 2D6. The format is in vitro ADME. An excerpt: (§1) Rapid screening for cytochrome P450 inhibitors is part of the current paradigm for avoiding development of drugs likely to give clinical pharmacokinetic drug-drug interactions and associated toxicities. There are commercially available assays for such screenings. For example, BD Biosciences (http://www.bdbiosciences.com/index.shtml) provides a technical bulletin describing a detailed, step-by-step procedure for the performance of the high throughput cytochrome P450 inhibition testing method.
Chain of Cytochrome P450 2D6 (P10635 whole entry): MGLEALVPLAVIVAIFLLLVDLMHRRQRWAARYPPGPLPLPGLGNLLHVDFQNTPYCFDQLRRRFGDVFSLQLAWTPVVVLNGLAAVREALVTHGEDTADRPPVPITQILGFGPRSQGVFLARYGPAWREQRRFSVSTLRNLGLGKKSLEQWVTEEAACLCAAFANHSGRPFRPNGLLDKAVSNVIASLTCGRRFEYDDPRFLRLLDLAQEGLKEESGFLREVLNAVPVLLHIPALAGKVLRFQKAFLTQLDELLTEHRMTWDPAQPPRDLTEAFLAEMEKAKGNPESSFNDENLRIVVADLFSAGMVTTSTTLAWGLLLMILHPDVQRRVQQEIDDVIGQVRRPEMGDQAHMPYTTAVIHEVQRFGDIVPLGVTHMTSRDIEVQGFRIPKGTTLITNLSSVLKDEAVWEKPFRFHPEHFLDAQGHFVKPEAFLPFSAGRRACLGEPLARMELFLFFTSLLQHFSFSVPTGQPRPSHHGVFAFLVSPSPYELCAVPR

The target in the next data set is Cytochrome P450 2C19 (Homo sapiens (Human), UniProt P33261). Kind of data set: Cytochrome P450 inhibition, 2C19. The format is in vitro ADME.
Chain of Cytochrome P450 2C19 (P33261 whole entry): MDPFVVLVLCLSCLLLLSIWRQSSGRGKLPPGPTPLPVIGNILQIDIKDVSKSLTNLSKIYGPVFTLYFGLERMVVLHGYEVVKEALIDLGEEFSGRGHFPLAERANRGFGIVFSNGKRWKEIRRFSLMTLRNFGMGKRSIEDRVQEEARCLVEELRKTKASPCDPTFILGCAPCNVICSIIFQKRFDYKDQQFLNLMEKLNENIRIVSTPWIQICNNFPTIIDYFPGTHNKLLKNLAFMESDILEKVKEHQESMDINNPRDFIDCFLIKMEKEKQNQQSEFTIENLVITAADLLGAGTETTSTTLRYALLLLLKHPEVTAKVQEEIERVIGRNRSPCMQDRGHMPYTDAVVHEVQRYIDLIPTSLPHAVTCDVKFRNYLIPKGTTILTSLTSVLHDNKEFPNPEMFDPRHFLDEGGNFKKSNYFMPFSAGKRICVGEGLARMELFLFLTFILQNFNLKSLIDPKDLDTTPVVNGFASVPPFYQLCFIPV
Excerpt: as §1

A further data set deals with Cytochrome P450 1A2 (Homo sapiens (Human), UniProt P05177). In kind it is in vitro ADME.
Chain of Cytochrome P450 1A2 (P05177 whole entry): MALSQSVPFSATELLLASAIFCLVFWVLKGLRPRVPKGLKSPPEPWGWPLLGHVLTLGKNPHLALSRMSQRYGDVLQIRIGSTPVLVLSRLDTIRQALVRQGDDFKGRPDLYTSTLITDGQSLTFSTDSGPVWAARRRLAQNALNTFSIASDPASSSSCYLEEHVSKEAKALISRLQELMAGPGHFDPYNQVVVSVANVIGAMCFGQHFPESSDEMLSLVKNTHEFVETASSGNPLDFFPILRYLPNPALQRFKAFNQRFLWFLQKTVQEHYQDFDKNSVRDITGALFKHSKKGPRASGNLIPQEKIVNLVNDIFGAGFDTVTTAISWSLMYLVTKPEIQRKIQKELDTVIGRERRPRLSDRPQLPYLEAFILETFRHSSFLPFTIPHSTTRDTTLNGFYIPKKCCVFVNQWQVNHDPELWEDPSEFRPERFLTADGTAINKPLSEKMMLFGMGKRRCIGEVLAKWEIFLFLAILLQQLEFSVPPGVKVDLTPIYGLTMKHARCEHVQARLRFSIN
Excerpt: as §1

In data set [1] the test system is Renal Proximal Tubule Epithelial Cells. The data set can be described thus: Renal Proximal Tubule Epithelial Cell Toxicity Screen. The format is cell-based. The gist of the method:
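Normal renal epithelial cells seeded at 1.5×10^4 cells/mL, grown 24 h at 37 °C/5% CO2, then exposed to compounds for 96 h; a T=0 plate was read at dosing. Viability by Alamar Blue fluorescence after 4 h, with Tween 20 and DMSO wells as positive and negative controls.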

The next data set has as its target hsDHODH (Homo sapiens (Human), UniProt Q02127). Kind of data set: DCIP assay, hsDHODH. In kind it is biochemical.
A further data set in a line: Hepatic clearance, rat. In kind it is in vitro ADME. The text has this: (§2) Clearance of drug by the liver will depend on the rate of delivery of drug to the liver (the hepatic blood flow) and on the efficiency of removal of drug which is presented to it (the extraction ratio). The hepatic clearance of compounds can be determined by standard methods known in the art. Such methods are described in, for example, Naritomi, Y; Terashita, S; Kagayama, A; Sugiyama, Y. “Utility of Hepatocytes in Predicting Drug Metabolism: Comparison of Hepatic Intrinsic Clearance in Rats and Humans in Vivo and in Vitro.” 2003, 31 (5): pages 580-588.

The target of another data set is Cytochrome P450 3A4 (Homo sapiens (Human), UniProt P08684). Kind of data set: Cytochrome P450 inhibition, 3A4. The format is in vitro ADME.
Chain of Cytochrome P450 3A4 (P08684 whole entry): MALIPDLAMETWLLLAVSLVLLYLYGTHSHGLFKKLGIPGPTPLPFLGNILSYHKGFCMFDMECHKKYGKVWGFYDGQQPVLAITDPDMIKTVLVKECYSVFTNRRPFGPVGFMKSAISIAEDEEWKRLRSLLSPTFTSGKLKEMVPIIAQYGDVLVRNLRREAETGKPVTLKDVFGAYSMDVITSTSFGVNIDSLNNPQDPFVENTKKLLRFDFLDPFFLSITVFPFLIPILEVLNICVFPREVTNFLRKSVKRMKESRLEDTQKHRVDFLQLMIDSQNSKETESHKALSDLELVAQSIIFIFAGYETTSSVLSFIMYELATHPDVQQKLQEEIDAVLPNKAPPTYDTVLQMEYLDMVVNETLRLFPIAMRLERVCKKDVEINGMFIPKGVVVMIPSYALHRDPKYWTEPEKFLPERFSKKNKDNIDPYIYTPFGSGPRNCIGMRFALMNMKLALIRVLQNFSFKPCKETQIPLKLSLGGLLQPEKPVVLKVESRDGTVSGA
Excerpt: as §1

The target of the next data set is Cytochrome P450 2C9 (Homo sapiens (Human), UniProt P11712). The data set can be described thus: Cytochrome P450 inhibition, 2C9. The format is in vitro ADME.
Chain of Cytochrome P450 2C9 (P11712 whole entry): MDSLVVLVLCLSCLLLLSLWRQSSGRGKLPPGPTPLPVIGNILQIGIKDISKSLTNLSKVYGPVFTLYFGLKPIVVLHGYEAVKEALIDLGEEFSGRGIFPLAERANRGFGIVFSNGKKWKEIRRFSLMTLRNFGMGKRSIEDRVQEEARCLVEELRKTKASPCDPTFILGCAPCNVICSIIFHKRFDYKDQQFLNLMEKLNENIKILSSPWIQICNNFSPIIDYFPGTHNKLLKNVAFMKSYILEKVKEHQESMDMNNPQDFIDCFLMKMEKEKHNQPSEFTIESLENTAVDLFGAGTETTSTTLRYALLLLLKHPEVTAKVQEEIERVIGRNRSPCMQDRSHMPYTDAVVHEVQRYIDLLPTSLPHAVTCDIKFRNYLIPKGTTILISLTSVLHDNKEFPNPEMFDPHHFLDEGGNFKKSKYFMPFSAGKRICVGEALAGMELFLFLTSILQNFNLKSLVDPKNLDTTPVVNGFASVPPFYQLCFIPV
Excerpt: as §1

A further data set deals with P. falciparum 3D7. Kind of data set: Inhibition of in vitro P. falciparum culture, [3H]-hypoxanthine uptake, 3D7. The note with it: for pEC50: read-out: 3D7 EC50; for pIC50: read-out: 3D7 IC50. In kind it is cell-based. The gist of the method:
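Parasite growth inhibition measured as relative reduction of [3H]-hypoxanthine uptake in in vitro cultures. Values from non-linear regression fit, using relative growth velocity in place of product-formation rate.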

A short description of a further data set: Hepatic clearance, human. In kind it is in vitro ADME.
Excerpt: as §2

The nature of data set [2]: Normal Human Dermal Fibroblast Toxicity Screen. In kind it is cell-based. The note with it: human, normal human dermal fibroblasts; four days exposure, Alamar Blue; read-out: Dermal Fibroblast LC50. How it is done:
The Normal Human Dermal Fibroblast Toxicity Screen Protocol is designed to determine whether compound mixtures, breakouts or single compounds are toxic to normal human dermal fibroblasts. The screen involves plating the dermal fibroblasts and then exposing them to the compounds for four days, then cell viability is measured using Alamar Blue reagent.
Harvested Dermal Fibroblast cells were diluted in Growth Media to 0.25 to 0.3×10^5 cells/mL. […] NOTE: One plate, the T=0 plate required that 20-30 wells be seeded and all the other plates had 96 wells seeded. Plates were incubated in 37° C./5% CO2 incubator for 24 hours.
Alamar Blue solution (25 μL/well) was added to the T=0 plate and the plate was agitated. The plate in 37° C./5% CO2 incubator was incubated for 3 hours, agitated the and the fluorescence was measured. 10% Tween 20 stock (10 μL) was added into rows A-D in column 1 (positive control). DMSO (0.5 μL) was added into column 2 (negative control). Compounds were placed into designated wells for desired testing as follows:
Plates were mixed on the shaker, then incubated in 37° C./5% CO2 incubator for 96 hours.
Alamar Blue solution (25 μL/well) was added to the plates containing the compounds, and the plates were agitated. The plates were incubated in 37° C./5% CO2 incubator for 3 hours, agitated and then the fluorescence was measured.

The mark [3] stands for this setting: Table 2b, read-out: Hu (human DHODH) IC50.
Setting [4] is: Table 3, DCIP assay, 20 nM hsDHODH, read-out: hsDHODH IC50.
Setting [5] is: Plasmodium falciparum, 3D7, Table 2b.
The mark [6] stands for this setting: Plasmodium falciparum, 3D7, Table 3, [3H]-hypoxanthine uptake.

pEC50, pIC50: −log10 of the molar value. Where two headings read alike, the source gives them in different places.

Chain of hsDHODH (Q02127 29-395 limits assumed): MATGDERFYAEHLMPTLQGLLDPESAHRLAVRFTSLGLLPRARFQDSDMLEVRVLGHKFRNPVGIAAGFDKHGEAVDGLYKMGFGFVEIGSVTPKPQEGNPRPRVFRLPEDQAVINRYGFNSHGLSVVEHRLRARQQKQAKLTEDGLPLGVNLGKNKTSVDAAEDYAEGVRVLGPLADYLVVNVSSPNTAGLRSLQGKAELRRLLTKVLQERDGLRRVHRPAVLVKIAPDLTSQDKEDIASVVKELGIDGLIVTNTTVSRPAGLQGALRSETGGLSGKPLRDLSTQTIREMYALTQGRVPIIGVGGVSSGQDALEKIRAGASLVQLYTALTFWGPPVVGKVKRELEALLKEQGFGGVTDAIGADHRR

As for `CCCNC(=O)c1ccc(-n2c(C)nc3ccccc32)s1` [Compound 12, 5-(2-methyl-1H-benzo[d]imidazol-1-yl)-N-propylthiophene-2-carboxamide], the “Cytochrome P450 Inhibition, 2D6” value at Cytochrome P450 2D6 is more than 5.0 in 2D6 μM. The “Cytochrome P450 Inhibition, 2C19” value at Cytochrome P450 2C19 is given as more than 5.0 in 2C19 μM. Moreover, the “Cytochrome P450 Inhibition, 1A2” value on Cytochrome P450 1A2 is more than 5.0 in 1A2 μM. For the same molecule, the “cytotoxicity in kidney epithelial cells” value in data set [1] is given as “No adverse cytotoxicity”. For the same molecule, the pIC50 on hsDHODH (setting [3]) was less than 4.52; at hsDHODH (setting [4]), less than 4.52; in the data set on P. falciparum 3D7 (setting [6]), 6.20. Further, the microsomal CLint in the data set “Hepatic clearance, rat” is 102 µL/min/mg; in the data set “Hepatic clearance, human”, 33 µL/min/mg. In addition, the “Cytochrome P450 Inhibition, 3A4” value at Cytochrome P450 3A4 is more than 5.0 in 3A4 μM. Also, the “Cytochrome P450 Inhibition, 2C9” value on Cytochrome P450 2C9 was more than 5.0 in 2C9 μM. Moreover, the pEC50 in the data set with P. falciparum 3D7 (setting [5]) was 6.20. Moreover, the CC50 at 96 h in [2] is more than 62 µM.
On to “5-(1H-indol-1-yl)-N-propylthiophene-2-carboxamide [Compound 7]”, for which the CC50 in data set [1] (4 days exposure, Alamar Blue, read-out: Kidney Epithelial LC50) was found to be 50 µM. Further, the pIC50 at hsDHODH (setting [3]) is less than 4.52; at hsDHODH (setting [4]) it was less than 4.52; in the data set on P. falciparum 3D7 (Table 3, [3H]-hypoxanthine uptake), 6.15. Also, the pEC50 with P. falciparum 3D7 (Table 2b) was 6.15.
`CCCNC(=O)c1ccc(-n2cnc3ccccc32)s1` [Compound 11, 5-(1H-benzo[d]imidazol-1-yl)-N-propylthiophene-2-carboxamide]: on Cytochrome P450 2D6, the “Cytochrome P450 Inhibition, 2D6” value was more than 5.0 in 2D6 μM. Moreover, on Cytochrome P450 2C19, the “Cytochrome P450 Inhibition, 2C19” value is more than 5.0 in 2C19 μM. At Cytochrome P450 1A2, the “Cytochrome P450 Inhibition, 1A2” value was more than 5.0 in 1A2 μM. Moreover, the pIC50 on hsDHODH (setting [3]) is less than 4.52; on hsDHODH (setting [4]), less than 4.52; in the data set with P. falciparum 3D7 (setting [6]), 6.33. Besides, the microsomal CLint in the data set “Hepatic clearance, rat” is more than 119 µL/min/mg; in the data set “Hepatic clearance, human”, 49 µL/min/mg. Further, at Cytochrome P450 3A4, the “Cytochrome P450 Inhibition, 3A4” value is on record as more than 5.0 in 3A4 μM. The “Cytochrome P450 Inhibition, 2C9” value at Cytochrome P450 2C9 is on record as more than 5.0 in 2C9 μM. Also, the pEC50 with P. falciparum 3D7 (setting [5]) was 6.33. In [2], the CC50 at 96 h was more than 62 µM.
Turning to `CCCNC(=O)c1ccc(-n2c(C)cc3ccccc32)s1` [Compound 1, 5-(2-methyl-1H-indol-1-yl)-N-propylthiophene-2-carboxamide], the pIC50 at hsDHODH (DCIP assay, 200 μM L-DHO, 18 μM CoQD, 100 μM DCIP, 20 nM enzyme, read-out: hsDHODH IC50) was less than 4.52; on hsDHODH (setting [3]), less than 4.52; at hsDHODH (setting [4]), less than 4.52; with P. falciparum 3D7 (Plasmodium falciparum, 3D7, Erythrocyte, [3H]-hypoxanthine uptake by parasite infected erythrocytes), 6.33; in the data set on P. falciparum 3D7 (setting [6]), 6.41. For the same molecule, the pEC50 in the data set with P. falciparum 3D7 (setting [5]) was 6.41. Moreover, the CC50 at 96 h in data set [2] is more than 62 µM.

(Values after patent US8703811B2, “Small molecule inhibitors of Plasmodium falciparum dihydroorotate dehydrogenase” (Genzyme Corporation, priority 2008, dated 2014).)
